{"source": "patent US20130310452A1", "about": "“ANTIFUNGAL FLAVOURING INGREDIENTS AND COMPOSITIONS” (FIRMENICH SA, priority 2011, published 2013)", "system": "main fungi responsible for beverage and food spoilage (yeast and mould strains)", "experiment": "Growth inhibition of yeast and mould strains in 105 g/L sucrose solution (OD after 21 days)", "type": "cell-based", "method": "The antifungal activity of various flavouring ingredients was evaluated against the following yeast strains: Zygosaccharomyces rouxii (DSM70835), Pichia membranaefaciens (DSM 70369), Dekkera Bruxellensis (DSM70726), Saccharomyces cerevisiae (DSM 70869) and Candida krusei (origin: Leatherhead Food Research) and against the following moulds strains: Byssochlamys nivea, Fusarium solani, Aspergillus fumigatis, Byssochlamys fulva, Aspergillus niger, Talaromyces Harzanium, Penicillium crustosum, Penicillium digitatum, Neosartorya fischeri, Penicillium roquerforti, Fusarium oxysporum.\nA 105 g/L solution of sucrose in water at pH 3±0.2 was prepared. Another sucrose solution at the same concentration at pH 5±0.2 was also prepared. The sucrose solutions were autoclaved at 121° C. for 15 minutes and the pH was re-checked to ensure it remained within the range.\nTest samples were then prepared in microtiter plates. An amount of 100 μL of sucrose solution prepared above, were mixed with an inoculum of 20 μL of one fungal strain, so as to achieve a microbial level comprised between 10^2 and 10^3 cfu/mL.\nThe flavouring ingredient or composition was then added to the microtiter plate. Dilutions were prepared in the microtiter plate for each mixture of sucrose solution and inoculum to afford final concentrations of 2000 ppm, 1000 ppm, 500 ppm, 250 ppm and 125 ppm of the ingredient or composition to be tested. One well for each mixture of sucrose solution and inoculum was kept free of flavouring ingredient or composition, to serve as a control.\nThe microtiter plates were then stored in a standard 25° C. incubator under aerobic conditions.\nThe optical density (OD) of each sample was measured after 21 days of incubation using a Bio-Tek Synergy™ HT Multi-Mode Microplate Reader (from Labtech International, UK). The wavelength was set to 380 nm for yeast strains and to 500 nm for mould strains. All tests were done in triplicate to ensure statistical relevance of the results.\nThe following tables indicate the OD measurements obtained when each flavouring ingredient or composition was used to inhibit growth of yeast and mould strains involved at concentration ranging between 0 and 2000 ppm. Measurements corresponding to efficient growth inhibition are indicated by grey cells in the tables below. Results were considered as evidence of efficient growth inhibition when the OD of the growth medium was below 0.2. OD measurements below 0.2 were not considered as sufficient evidence of the antifungal activity of a given flavouring ingredient or composition at a given concentration if OD measurements obtained with a higher concentration of such flavouring ingredient or composition were above 0.2.", "key": {"[1]": {"details": "sucrose solution at pH 3, concentrations of 1000 ppm or less, OD below 0.2 after 21 days at 25° C., 16 strains tested"}, "[2]": {"details": "sucrose solution at pH 5, concentrations of 1000 ppm or less, OD below 0.2 after 21 days at 25° C., 16 strains tested"}}, "data": [{"smiles": "O=C(O)c1ccccc1O", "note": "[salicylic acid]", "values": [{"measurement": "number of the main fungi responsible for beverage and food spoilage against which there is a strong antifungal effect", "setting": "[1]", "value": 12}, {"measurement": "number of the main fungi responsible for beverage and food spoilage against which there is a strong antifungal effect", "setting": "[2]", "value": 14}]}, {"smiles": "CC(C)CC=C(C=O)c1ccccc1", "note": "[5-methyl-2-phenyl-2-hexenal]", "values": [{"measurement": "number of the main fungi responsible for beverage and food spoilage against which there is a strong antifungal effect", "setting": "pH 3", "value": 9}, {"measurement": "number of the main fungi responsible for beverage and food spoilage against which there is a strong antifungal effect", "setting": "pH 5", "value": 5}]}, {"smiles": "CC(=O)C=CCCC(C)C", "note": "[7-methyl-3-octen-2-one]", "values": [{"measurement": "number of the main fungi responsible for beverage and food spoilage against which there is a strong antifungal effect", "setting": "[1]", "value": 6}, {"measurement": "number of the main fungi responsible for beverage and food spoilage against which there is a strong antifungal effect", "setting": "[2]", "value": 11}]}, {"smiles": "Cc1ccc(C(C)C)c(O)c1", "note": "[thymol]", "values": [{"measurement": "number of the main fungi responsible for beverage and food spoilage against which there is a strong antifungal effect", "setting": "[1]", "value": 4}]}, {"smiles": "CCCCC(C)C(=O)O", "note": "(stereo not drawn) [2-methylhexanoic acid]", "values": [{"measurement": "number of the main fungi responsible for beverage and food spoilage against which there is a strong antifungal effect", "setting": "[1]", "value": 15}, {"measurement": "number of the main fungi responsible for beverage and food spoilage against which there is a strong antifungal effect", "setting": "[2]", "value": 16}]}, {"smiles": "CCCCCc1ccco1", "note": "[2-pentylfuran]", "values": [{"measurement": "number of the main fungi responsible for beverage and food spoilage against which there is a strong antifungal effect", "setting": "[1]", "value": 3}, {"measurement": "number of the main fungi responsible for beverage and food spoilage against which there is a strong antifungal effect", "setting": "[2]", "value": 2}]}, {"smiles": "COc1cc(C)cc(O)c1", "note": "[orcinyle, 3-methoxy-5-methylphenol]", "values": [{"measurement": "number of the main fungi responsible for beverage and food spoilage against which there is a strong antifungal effect", "setting": "[1]", "value": 2}]}, {"smiles": "C[C@@H]1CC[C@H]2[C@H](C)C(=O)O[C@@H]2C1", "note": "[(+)-(3S,3AS,6R,7AR)-perhydro-3,6-dimethyl-benzo[B]furan-2-one]", "values": [{"measurement": "number of the main fungi responsible for beverage and food spoilage against which there is a strong antifungal effect", "setting": "[1]", "value": 3}, {"measurement": "number of the main fungi responsible for beverage and food spoilage against which there is a strong antifungal effect", "setting": "[2]", "value": 2}]}, {"smiles": "CCCc1ccc(O)c(OC)c1", "note": "[dihydro eugenol]", "values": [{"measurement": "number of the main fungi responsible for beverage and food spoilage against which there is a strong antifungal effect", "setting": "[1]", "value": 15}, {"measurement": "number of the main fungi responsible for beverage and food spoilage against which there is a strong antifungal effect", "setting": "[2]", "value": 15}]}, {"smiles": "CC(C)=CCCC(C)=CCCC(C)=CCO", "note": "[farnesol]", "values": [{"measurement": "number of the main fungi responsible for beverage and food spoilage against which there is a strong antifungal effect", "setting": "[1]", "value": 2}]}, {"smiles": "Cc1ccc(C(C)C)cc1O", "note": "[carvacrol]", "values": [{"measurement": "number of the main fungi responsible for beverage and food spoilage against which there is a strong antifungal effect", "setting": "[1]", "value": 15}, {"measurement": "number of the main fungi responsible for beverage and food spoilage against which there is a strong antifungal effect", "setting": "[2]", "value": 14}]}, {"smiles": "CC1=CCC(=C(C)C)CC1", "note": "[terpinolene]", "values": [{"measurement": "number of the main fungi responsible for beverage and food spoilage against which there is a strong antifungal effect", "setting": "[1]", "value": 15}, {"measurement": "number of the main fungi responsible for beverage and food spoilage against which there is a strong antifungal effect", "setting": "[2]", "value": 7}]}]}
